PMC5858925, “Mechanochemical coupling and bi-phasic force-velocity dependence in the ultra-fast ring ATPase SpoIIIE” (eLife, 2018)

Target: T1, SpoIIIE (Bacillus subtilis, UniProt P21458)
T1 construct: recombinant SpoIIIE, homo-hexamer, immobilized on polystyrene beads
Assay: optical tweezers, pause-free DNA translocation velocity vs [ATP], Michaelis-Menten fit
Format: biochemical
Details: 0.25-5 mM ATP; 5 pN opposing force; dsDNA track; 5 µM ADP and 5 µM Pi

T1 sequence (P21458 whole entry): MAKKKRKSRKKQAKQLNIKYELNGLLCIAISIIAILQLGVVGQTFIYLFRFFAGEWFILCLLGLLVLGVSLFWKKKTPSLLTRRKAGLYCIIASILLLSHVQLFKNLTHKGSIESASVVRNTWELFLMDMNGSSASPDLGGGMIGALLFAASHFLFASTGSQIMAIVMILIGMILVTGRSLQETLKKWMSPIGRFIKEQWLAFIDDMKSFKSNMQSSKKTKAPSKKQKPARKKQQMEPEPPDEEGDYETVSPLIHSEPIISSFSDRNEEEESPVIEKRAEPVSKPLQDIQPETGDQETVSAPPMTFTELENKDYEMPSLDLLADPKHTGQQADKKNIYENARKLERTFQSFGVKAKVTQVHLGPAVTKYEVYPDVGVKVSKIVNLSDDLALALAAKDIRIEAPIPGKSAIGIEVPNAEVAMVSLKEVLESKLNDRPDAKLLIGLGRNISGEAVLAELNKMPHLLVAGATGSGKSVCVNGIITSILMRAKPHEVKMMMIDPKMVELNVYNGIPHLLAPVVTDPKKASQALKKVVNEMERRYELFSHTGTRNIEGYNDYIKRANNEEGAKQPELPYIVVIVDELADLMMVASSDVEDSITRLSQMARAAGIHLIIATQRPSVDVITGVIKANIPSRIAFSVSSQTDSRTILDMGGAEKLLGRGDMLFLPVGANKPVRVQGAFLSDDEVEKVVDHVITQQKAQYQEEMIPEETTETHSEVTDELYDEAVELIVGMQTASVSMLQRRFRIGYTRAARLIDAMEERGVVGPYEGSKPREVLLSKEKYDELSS

For `Nc1ncnc2c1ncn2[C@@H]1O[C@H](COP(=O)(O)OP(=O)(O)OP(=O)(O)O)[C@@H](O)[C@H]1O` [ATP], the KM was “Although both Vmax and KM decrease with force, Vmax/KM is largely force-independent”.
